These results are taken from patent US20230348453A1, “HALOGENATED-HETEROARYL AND OTHER HETEROCYCLIC KINASE INHIBITORS, AND USES THEREOF” (iOmx Therapeutics AG, priority 2020, published 2023).

Where two headings read alike, the source gives them in different places.

For one data set, the system named is HCT116 cells. Description: TNF-sensitised cell viability assay (CellTiter-Glo). As to conditions: Homo sapiens, HCT-116, read-out: HCT116 IC50 (at 10 ng/ml rHuTNF). On the technique in general: ATP-based viability assays read luminescence as a measure of living cells.
Data set [1] has as its system MC38 murine tumour cell line. Described as above. As to conditions: Mus musculus; for IC50: MC-38, read-out: MC38 IC50 (at 100 ng/mL rMuTNF).
For data set [2], the target named is T1, SIK3 (Homo sapiens (Human), UniProt Q9Y2K2). Description: SIK3 kinase inhibition (IC50).
In data set [3] the target is T2, SIK2 (Homo sapiens (Human), UniProt Q9H0K1). The experiment in a line: SIK2 kinase inhibition (IC50). The conditions noted are these: read-out: Kinase: IC50 (nM) SIK2.
A further data set relates to PANC1 cells. Description: TNF-sensitised cell viability assay (CellTiter-Glo). The conditions noted are these: Homo sapiens, PANC-1, read-out: PANC IC50 (at 100 ng/ml rHuNF).
Data set [4] concerns the target T2, SIK2. The conditions noted are these: read-out: SIK2 IC50.
The target in a further data set is ABL1 wt (Homo sapiens (Human), UniProt P00519). The data set is classed as biochemical.
The target of data set [5] is T1, SIK3.
The next data set deals with SRC (GST-HIS-tag) (Homo sapiens (Human), UniProt P12931). In kind it is biochemical.
In data set [6] the test system is MC38 colorectal carcinoma tumours. The experiment in a line: MC38 syngeneic mouse tumour model (Example 8.1). The conditions noted are these: MC38; 40 mg/Kg, BID po.
The next data set relates to MV4-11 cell line. The experiment in a line: Growth inhibition (GI50) of AML cell lines. The data set is classed as cell-based. The conditions noted are these: Homo sapiens, MV4-11; pMEF2C-positive; read-out: GI50 against MV4-11 cell line.
The nature of a further data set: in vivo. As to conditions: male, CD1, mouse, po, 30 mg/kg.
A short description of data set [7]: MDCK wild type permeability/efflux. As to conditions: dog.
Data set [8] relates to SIK3 WT and KO MC38 clones. Description: TNF-mediated killing of SIK3 wildtype vs SIK3 knockout MC38 clones (CTG). In kind it is cell-based, mouse. The conditions noted are these: sub-optimal TNF (<10 ng/ml), 72 h.
Procedure: The assay was performed as follows: MC38 SIK3 KO clones were generated using CRISPR. Cells were transfected with RNP complexes (Cas9+gRNA) containing gRNAS targeting SIK3 or non-targeting sequences (control). […] Subsequently, single cell clones were generated by limiting dilution. CRISPR-derived mutations in single clones were detected by next-generation sequencing and analysed using CRISPResso. Knockout and wildtype clones were selected and plated overnight. […] Cells treated with different concentrations of inhibitor but without TNF served as no TNF control. Cell viability was measured by CTG assay.
Data set [9] in a line: Screening PK in mice after 30 mg/kg po.
For another data set, the target named is CSF1R (Homo sapiens (Human), UniProt P07333). The data set is classed as biochemical. The conditions noted are these: Kinase Profiler.
Data set [10] relates to HDAC4 phosphorylation in PANC-1 cells. Description: HDAC4 phosphorylation (Meso Scale Discovery assay). As to conditions: 10 ng/mL rHuTNF, 3 h.
Another data set addresses HCK (Homo sapiens (Human), UniProt P08631). The data set is classed as biochemical. As to conditions: Kinase Profiler.
The nature of data set [11]: Human hepatocyte stability. In kind it is in vitro ADME. The conditions noted are these: human, hepatocytes.
A further data set concerns the target MDR1 (P-gp) (Homo sapiens (Human), UniProt P08183). The experiment in a line: MDR1-MDCK effective efflux assay. The conditions noted are these: dog; for efflux ratio: Table 5.1B.
Data set [12] has as its target MDR1 pump (P-gp), MDCK-MDR1 cells (Homo sapiens (Human), UniProt P08183). The experiment in a line: MDR1-MDCK effective efflux assay. As to conditions: Table 5.1B.
Data set [13] in a line: Murine plasma protein binding.
A further data set concerns KASUMI-1 cell line. Description: Growth inhibition (GI50) of AML cell lines. The data set is classed as cell-based. The conditions noted are these: Homo sapiens, Kasumi 1; pMEF2C-positive; read-out: GI50 against KASUMI-1 cell line.
The test system of data set [14] is NFKB activity in PANC-1 cells. Description: TNF-induced NFKB activity (NFKB-dependent luciferase reporter). As to conditions: 10 ng/ml rHuTNF, PANC-1 reporter cells. For orientation: A reporter such as luciferase makes a cellular process visible.
The conditions of data set [15]: in vivo, po, 30 mg/kg.
The conditions of data set [16]: female, C57BL/6, mouse, in vivo, 7 days.
Data set [17] can be described thus: Mouse hepatocyte stability. In kind it is in vitro ADME. The conditions noted are these: hepatocytes.
A short description of data set [18]: in vitro. As to conditions: mouse, microsomes.
Data set [19] can be described thus: Human plasma-protein binding.
Data set [20] can be described thus: Metabolite profile in hepatocytes / in vivo.
Source text: Metabolites are identified using high-resolution mass spectrometry.
The nature of data set [21]: in vitro. The conditions noted are these: human, microsomes.
Data set [22] relates to NFKB activity in MC38 cells. Description: TNF-induced NFKB activity (NFKB-dependent luciferase reporter). As to conditions: 10 ng/ml rMuTNF.
Where [23] appears, read: total plasma concentration at 30 mg/kg p.o dose, fold of C7 (C7 = 1×).

Sequence of CSF1R (P07333 20-972 limits assumed): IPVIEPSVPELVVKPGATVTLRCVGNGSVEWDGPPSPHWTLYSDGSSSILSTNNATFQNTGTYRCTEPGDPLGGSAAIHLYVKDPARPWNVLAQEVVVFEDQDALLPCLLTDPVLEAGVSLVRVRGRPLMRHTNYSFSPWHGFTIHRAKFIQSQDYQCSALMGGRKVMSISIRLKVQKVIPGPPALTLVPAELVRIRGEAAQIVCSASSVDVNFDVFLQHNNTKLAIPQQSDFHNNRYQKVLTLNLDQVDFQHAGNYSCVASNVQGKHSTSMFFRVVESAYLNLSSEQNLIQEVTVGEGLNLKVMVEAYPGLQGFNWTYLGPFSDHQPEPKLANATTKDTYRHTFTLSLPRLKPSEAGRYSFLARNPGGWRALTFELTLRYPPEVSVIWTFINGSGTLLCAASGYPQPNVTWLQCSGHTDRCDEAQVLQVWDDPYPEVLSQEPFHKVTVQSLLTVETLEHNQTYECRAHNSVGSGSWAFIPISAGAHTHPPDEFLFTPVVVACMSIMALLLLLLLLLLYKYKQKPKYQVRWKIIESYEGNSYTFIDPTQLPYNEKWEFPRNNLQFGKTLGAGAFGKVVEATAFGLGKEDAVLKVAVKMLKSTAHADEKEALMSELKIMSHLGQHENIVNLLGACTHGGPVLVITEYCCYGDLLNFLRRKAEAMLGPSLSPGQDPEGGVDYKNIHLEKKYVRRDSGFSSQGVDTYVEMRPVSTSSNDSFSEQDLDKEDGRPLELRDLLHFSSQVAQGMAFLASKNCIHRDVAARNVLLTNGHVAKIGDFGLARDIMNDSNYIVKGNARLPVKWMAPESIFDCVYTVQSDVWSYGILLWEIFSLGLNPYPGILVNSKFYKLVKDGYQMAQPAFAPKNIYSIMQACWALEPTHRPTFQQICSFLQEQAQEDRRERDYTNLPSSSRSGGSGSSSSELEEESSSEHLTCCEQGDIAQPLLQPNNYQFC
Sequence of ABL1 wt (P00519 118-535 limits assumed): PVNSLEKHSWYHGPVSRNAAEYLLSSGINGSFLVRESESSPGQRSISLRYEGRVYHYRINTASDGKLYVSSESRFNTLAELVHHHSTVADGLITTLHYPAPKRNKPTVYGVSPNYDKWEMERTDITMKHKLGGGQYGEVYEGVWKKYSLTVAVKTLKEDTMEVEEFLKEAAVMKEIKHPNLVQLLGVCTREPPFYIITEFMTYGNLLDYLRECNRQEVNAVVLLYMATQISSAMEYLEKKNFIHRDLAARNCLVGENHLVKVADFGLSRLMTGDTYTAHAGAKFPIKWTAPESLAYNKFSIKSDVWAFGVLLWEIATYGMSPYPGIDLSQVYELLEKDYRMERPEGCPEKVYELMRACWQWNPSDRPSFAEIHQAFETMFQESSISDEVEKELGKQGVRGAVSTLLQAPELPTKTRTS

For the compound `Cc1nc(Nc2ncc(C(=O)Nc3c(C(F)F)csc3Cl)s2)cc(N2CCN(C)C(C)C2)n1` (racemic) [Compound E16, N-(2-chloro-4-(difluoromethyl)thiophen-3-yl)-2-((2-methyl-6-(3,4-dimethylpiperazin-1-yl)pyrimidin-4-yl)amino)thiazole-5-carboxamide], the IC50 was under 100 nM in the data set on HCT116 cells; under 100 nM in data set [1]; 20 to 50 nM at SIK3 [2]; under 20 nM at SIK2 [3]; under 100 nM with PANC1 cells.

On to `Cc1nc(Nc2ncc(C(=O)Nc3c(Cl)ccnc3C)s2)cc(N2CCN(C)CC2)n1` [Compound C10], for which the IC50 was 138 nM at SIK2 [4], 4.3 nM at ABL1 wt, 493 nM on SIK3 [5] (read-out: SIK3 IC50) and under 1.5 nM at SRC (GST-HIS-tag).

Usually GI50 stands for the concentration giving 50% growth inhibition. As usually defined, the AUC(0-inf) is the area under the concentration-time curve extrapolated to infinity. Read a high AUC(0-inf) as more exposure. The term AUC(0-t) denotes exposure summed from dosing to a finite time, without extrapolation to infinity. High values mean more exposure, low ones less exposure. By Cmax is commonly meant the maximum level reached in the sampled fluid or tissue. For orientation: MRT last means a mean duration of stay, worked out from the concentration-time curve. For orientation: Tmax means the time from dosing to the highest level. Broadly, the half-life is the time in which the quantity being followed falls by half. A word on the EC50: it is the concentration that produces a half-maximal response. The term Papp denotes the rate of passage across a membrane or cell layer, normalised by area and donor concentration. Low readings indicate poor permeation, high ones ready permeation. As usually defined, the efflux ratio is the permeability from basolateral to apical divided by that in the opposite direction, in the common usage. As to `Cc1nc(Nc2ncc(C(=O)Nc3c(C(F)F)csc3Cl)s2)cc(N2CCN(CCO)CC2)n1` [Compound E4, N-(2-chloro-4-(difluoromethyl)thiophen-3-yl)-2-((6-(4-(2-hydroxyethyl)piperazin-1-yl)-2-methylpyrimidin-4-yl)amino)thiazole-5-carboxamide], in data set [6], the “Body weight increase (%)” value is 12.0%, the Non-treatment related death is given as 3/16 and the “Tumour growth inhibition (%)” value is 64%. Moreover, in the data set on MV4-11 cell line, the 50% growth inhibitory concentration (GI50) was under 750 nM. In the data set “in vivo”, this compound displayed an AUC(0-inf) of 5.5 µM·h, an AUC(0-t) of 5.48 µM·h, a Cmax of 1240 ng/mL and a mean residence time (MRT last) of 5.88 h. For the same compound, in “in vivo”, the Tmax came out at 2 h and the half-life was 4.49 h. The IC50 in the data set with HCT116 cells is under 100 nM. In data set [1], the IC50 is under 100 nM. Also, in data set [1] (MC-38, read-out: mean EC50 of sensitising MC38 tumour cells to TNF-mediated killing), the EC50 is under 100 nM. Besides, in data set [7], the Papp was determined as 5 ×10⁻⁶ cm/s and the efflux ratio amounted to 4.1. Further, the “TNF-mediated killing in SIK3 WT vs KO MC38 clones” value in data set [8] was “induced TNF-mediated killing only in SIK3 WT clones”. Besides, the “SIK3 IC50 (nM), relative to C7” value on SIK3 [5] (fold of the value of compound C7 (C7 = 1×)) came out at 0.6×. The “fold increase of concentration at 6 h compared to dasatinib” value in [9] (mice, 30 mg/kg po, 6 h) turned out to be 3 fold. Also, in data set [9] (mouse, in vivo), the “fold improvement of free serum concentration over C7” value is given as 5 fold and the “fold improvement of total serum concentration over C7” value is on record as 9.6 fold. The Cmax at 2 h in [9] (mouse, plasma, po, 30 mg/kg) was found to be 1210 ng/mL. This compound also came in with a concentration at 6 h in data set [9] (mouse, plasma, po, 30 mg/kg, Free plasma concentration after 6 h (nM), mice, 30 mg/kg po, 6 h) of 17.9 nM. Further, in data set [9] (mouse, plasma, po, 30 mg/kg, Plasma concentration after 6 h (nM), mice, 30 mg/kg po, 6 h), the concentration at 6 h is 662 nM. Further, in data set [9] (setting [23]), the “AUC0-last (nM*h), relative to C7” value was 4.7×; the “C max (ng/ml), relative to C7” value was determined as 2.6×; the “MRT0-last (h), relative to C7” value stood at 2×; the “t1/2 (h), relative to C7” value turned out to be 3.2×. Further, on SIK3 [2] (read-out: Kinase: IC50 (nM) SIK3), the IC50 is under 20 nM. In addition, on CSF1R, the CSF1R residual activity entry was “less than 1%”. Besides, the “Inhibition of HDAC4 phosphorylation” value in [10] is “++”. For the same compound, the HCK residual activity result at HCK was “less than 1%”. The half-life in [11] (read-out: Human hepatocyte stability, Half-life) was determined as 1.07 h. Moreover, the microsomal CLint in data set [11] (read-out: Human hepatocyte stability, Intrinsic clearance) worked out at 22 µL/min/mg. Moreover, in data set [11] (read-out: half-life in the presence of human hepatocytes (converted)), the half-life is about 1 h. Besides, the Papp on MDR1 (P-gp) (MDCK-MDR1) is 3 ×10⁻⁶ cm/s. Besides, at MDR1 (P-gp) (MDCK-MDR1, MDCK-MDR1 cells, Mean Efflux Ratio (MDR1)), the efflux ratio is 40 to 50. Also, on MDR1 (P-gp) (MDCK-MDR1, P-gP driven efflux ratio (MDR1/wt)), the efflux ratio was 11. The “MDCK-MDR1 cells, Mean Efflux Ratio (MDR1)” value in [12] came to 43. Further, the “Murine plasma protein binding, Percentage unbound (%)” value in data set [13] (Table 5.1A) is given as 2%. Also, in [13] (mouse, plasma), the recovery at 4 h is 80%. Also, the 50% growth inhibitory concentration (GI50) with KASUMI-1 cell line was under 7.5 nM. Moreover, the “Inhibition of NFKB activity (PANC-1)” value in data set [14] is reported as “++”. Moreover, in [15] (male, CD1, mouse), the “% AUCextrap, Free” value was determined as 0.31%; the “% AUCextrap, Total” value came to 0.31%; the “AUCinf (nM*h), Free” value came to 148.39 nM·h; the “AUClast (nM*h), Free” value was determined as 147.93 nM·h. In data set [15] (mouse), the “Rsq, Free” value turned out to be 0.90 and the “Rsq, Total” value is reported as 0.90. Also, in data set [16], the “DLT@BID dosing” value lay within 60 to 80 mg/kg, the “DLT@QD dosing” value is listed as “n.d. @80 mg/kg”, the “HRD in vivo @BID” value came to 33 mg/kg and the “HRD in vivo @QD” value came to 80 mg/kg. The half-life in data set [17] was determined as 1.3 h. Moreover, the microsomal CLint in data set [17] (read-out: Mouse hepatocyte stability, Intrinsic clearance) turned out to be 18 µL/min/mg. In the data set “in vitro [18]”, this compound came in with a half-life of 0.333 h and a microsomal CLint of 70 µL/min/mg. The “Human plasma-protein binding, Percentage unbound (%)” value in [19] (Table 5.1A) is under 1%. This compound also registered a recovery at 4 h in data set [19] (human, plasma) of 77%. Further, at SIK2 [3], the IC50 is under 20 nM. Also, the quinone-imine reactive metabolite result in [20] is “not observed”. In “in vitro [21]”, the half-life is 0.367 h and the microsomal CLint is 65 µL/min/mg. Moreover, the “Inhibition of NFKB activity (MC38)” value in data set [22] is given as “++”.
